Patent publication US20240300980A1, “HETEROCYCLIC COMPOUNDS AS KRAS INHIBITOR, AND PREPARATION THEREFOR AND USE THEREOF IN TREATMENT” (SHANGHAI KECHOW PHARMA, INC., priority 2021, published 2024)

tested on: AGS cells (KRAS^G12D); assay: Detection of cell proliferation in vitro by MTT/MTS method (cell activity experiment); format: cell-based; settings: Homo sapiens, AGS, 72 h, AGS cells; MTT/MTS; 3 days of drug treatment; read-out: AGS IC50
How it was run: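 KRAS G12D AGS cells seeded at 1000 per well, compound added 24 h later, 0.5% final DMSO. Viability read after 3 days of treatment by MTT (solubilised in DMSO) or MTS, 4 h, absorbance 490 nm. IC50 from dose–response curves versus DMSO control.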

Structure (SMILES) | IC50
CCc1c(F)ccc2cc(O)cc(-c3ncc4c(N5C[C@H]6CC[C@@H](C5)N6)c(C#N)c(OC[C@@]56CCCN5C[C@H](F)C6)nc4c3F)c12 [Example 192, 4-((1R,5S)-3,8-diazabicyclo[3.2.1]octan-3-yl)-7-(8-ethyl-7-fluoro-3-hydroxynaphthalen-1-yl)-8-fluoro-2-(((2R,7aS)-2-fluorotetrahydro-1H-pyrrolizin-7a(5H)-yl)methoxy)-1,6-naphthyridine-3-carbonitrile] | 0.121 µM
N#Cc1c(OC[C@@]23CCCN2C[C@H](F)C3)nc2c(F)c(-c3cc(O)cc4ccc(F)c(F)c34)ncc2c1N1C[C@H]2CC[C@@H](C1)N2 [Example 193, 4-((1R,5S)-3,8-diazabicyclo[3.2.1]octan-3-yl)-7-(7,8-difluoro-3-hydroxynaphthalen-1-yl)-8-fluoro-2-(((2R,7aS)-2-fluorotetrahydro-1H-pyrrolizin-7a(5H)-yl)methoxy)-1,6-naphthyridine-3-carbonitrile] | 0.125 µM
N#Cc1c(OC[C@@]23CCCN2C[C@H](F)C3)nc2c(F)c(-c3cc(O)cc4cccc(F)c34)ncc2c1N1C[C@H]2CC[C@@H](C1)N2 [Example 194, 4-((1R,5S)-3,8-diazabicyclo[3.2.1]octan-3-yl)-8-fluoro-7-(8-fluoro-3-hydroxynaphthalen-1-yl)-2-(((2R,7aS)-2-fluorotetrahydro-1H-pyrrolizin-7a(5H)-yl)methoxy)-1,6-naphthyridine-3-carbonitrile] | 0.15 µM
C#Cc1c(F)ccc2cc(O)cc(-c3cc4nc(OC[C@@]56CCCN5C[C@H](F)C6)c(C(F)(F)F)c(N5C[C@H]6CC[C@@H](C5)N6)c4cn3)c12 [Example 195, 4-(4-((1R,5S)-3,8-diazabicyclo[3.2.1]octan-3-yl)-2-(((2R,7aS)-2-fluorotetrahydro-1H-pyrrolizin-7a(5H)-yl)methoxy)-3-(trifluoromethyl)-1,6-naphthyridin-7-yl)-5-ethynyl-6-fluoronaphthalen-2-ol] | > 2.5 µM
C#Cc1c(F)ccc2cc(O)cc(-c3ncc4c(N5C[C@H]6CC[C@@H](C5)N6)c(C(F)(F)F)c(OC[C@@]56CCCN5C[C@H](F)C6)nc4c3F)c12 [Example 196, 4-(4-((1R,5S)-3,8-diazabicyclo[3.2.1]octan-3-yl)-8-fluoro-2-(((2R,7aS)-2-fluorotetrahydro-1H-pyrrolizin-7a(5H)-yl)methoxy)-3-(trifluoromethyl)-1,6-naphthyridin-7-yl)-5-ethynyl-6-fluoronaphthalen-2-ol] | > 2.5 µM
CCc1c(F)ccc2cc(O)cc(-c3ncc4c(N5C[C@H]6CC[C@@H](C5)N6)c(C(F)(F)F)c(OC[C@@]56CCCN5C[C@H](F)C6)nc4c3F)c12 [Example 197, 4-(4-((1R,5S)-3,8-diazabicyclo[3.2.1]octan-3-yl)-8-fluoro-2-(((2R,7aS)-2-fluorotetrahydro-1H-pyrrolizin-7a(5H)-yl)methoxy)-3-(trifluoromethyl)-1,6-naphthyridin-7-yl)-5-ethyl-6-fluoronaphthalen-2-ol] | > 2.5 µM
Oc1cc(-c2ncc3c(N4C[C@H]5CC[C@@H](C4)N5)c(C(F)(F)F)c(OC[C@@]45CCCN4C[C@H](F)C5)nc3c2F)c2c(F)c(F)ccc2c1 [Example 198, 4-(4-((1R,5S)-3,8-diazabicyclo[3.2.1]octan-3-yl)-8-fluoro-2-(((2R,7aS)-2-fluorotetrahydro-1H-pyrrolizin-7a(5H)-yl)methoxy)-3-(trifluoromethyl)-1,6-naphthyridin-7-yl)-5,6-difluoronaphthalen-2-ol] | > 2.5 µM
Oc1cc(-c2cnc3c(N4C[C@H]5CC[C@@H](C4)N5)nc(OC[C@@]45CCCN4C[C@H](F)C5)nc3c2)c2c(F)c(F)ccc2c1 [Example 199, 4-(4-((1R,5S)-3,8-diazabicyclo[3.2.1]octan-3-yl)-2-(((2R,7aS)-2-fluorotetrahydro-1H-pyrrolizin-7a(5H)-yl)methoxy)pyrido[3,2-d]pyrimidin-7-yl)-5,6-difluoronaphthalen-2-ol] | > 2.5 µM
C#Cc1c(F)ccc2cc(O)cc(-c3cnc4c(N5C[C@H]6CC[C@@H](C5)N6)nc(OC[C@@]56CCCN5C[C@H](F)C6)nc4c3)c12 [Example 200, 4-(4-((1R,5S)-3,8-diazabicyclo[3.2.1]octan-3-yl)-2-(((2R,7aS)-2-fluorotetrahydro-1H-pyrrolizin-7a(5H)-yl)methoxy)pyrido[3,2-d]pyrimidin-7-yl)-5-ethynyl-6-fluoronaphthalen-2-ol] | > 2.5 µM
CCc1c(F)ccc2cc(O)cc(-c3cnc4c(N5C[C@H]6CC[C@@H](C5)N6)nc(OC[C@@]56CCCN5C[C@H](F)C6)nc4c3)c12 [Example 201, 4-(4-((1R,5S)-3,8-diazabicyclo[3.2.1]octan-3-yl)-2-(((2R,7aS)-2-fluorotetrahydro-1H-pyrrolizin-7a(5H)-yl)methoxy)pyrido[3,2-d]pyrimidin-7-yl)-5-ethyl-6-fluoronaphthalen-2-ol] | > 2.5 µM
C#Cc1c(F)ccc2cc(O)cc(N3CCc4c(nc(OC[C@@]56CCCN5C[C@H](F)C6)nc4N4C[C@H]5CC[C@@H](C4)N5)C3)c12 [Example 202, 4-(4-((1R,5S)-3,8-diazabicyclo[3.2.1]octan-3-yl)-2-(((2R,7aS)-2-fluorotetrahydro-1H-pyrrolizin-7a(5H)-yl)methoxy)-5,8-dihydropyrido[3,4-d]pyrimidin-7(6H)-yl)-5-ethynyl-6-fluoronaphthalen-2-ol] | 0.0075 µM
CCc1c(F)ccc2cc(O)cc(N3CCc4c(nc(OC[C@@]56CCCN5C[C@H](F)C6)nc4N4C[C@H]5CC[C@@H](C4)N5)C3)c12 [Example 203, 4-(4-((1R,5S)-3,8-diazabicyclo[3.2.1]octan-3-yl)-2-(((2R,7aS)-2-fluorotetrahydro-1H-pyrrolizin-7a(5H)-yl)methoxy)-5,8-dihydropyrido[3,4-d]pyrimidin-7(6H)-yl)-5-ethyl-6-fluoronaphthalen-2-ol] | 0.017 µM
Oc1cc(N2CCc3c(nc(OC[C@@]45CCCN4C[C@H](F)C5)nc3N3C[C@H]4CC[C@@H](C3)N4)C2)c2c(F)c(F)ccc2c1 [Example 204, 4-(4-((1R,5S)-3,8-diazabicyclo[3.2.1]octan-3-yl)-2-(((2R,7aS)-2-fluorotetrahydro-1H-pyrrolizin-7a(5H)-yl)methoxy)-5,8-dihydropyrido[3,4-d]pyrimidin-7(6H)-yl)-5,6-difluoronaphthalen-2-ol] | 0.011 µM
Oc1cc(N2CCc3c(nc(OC[C@@]45CCCN4C[C@H](F)C5)nc3N3C[C@H]4CC[C@@H](C3)N4)C2)c2c(F)cccc2c1 [Example 205, 4-(4-((1R,5S)-3,8-diazabicyclo[3.2.1]octan-3-yl)-2-(((2R,7aS)-2-fluorotetrahydro-1H-pyrrolizin-7a(5H)-yl)methoxy)-5,8-dihydropyrido[3,4-d]pyrimidin-7(6H)-yl)-5-fluoronaphthalen-2-ol] | 0.018 µM
C#Cc1cccc2cc(O)cc(N3CCc4c(nc(OC[C@@]56CCCN5C[C@H](F)C6)nc4N4C[C@H]5CC[C@@H](C4)N5)C3)c12 [Example 206, 4-(4-((1R,5S)-3,8-diazabicyclo[3.2.1]octan-3-yl)-2-(((2R,7aS)-2-fluorotetrahydro-1H-pyrrolizin-7a(5H)-yl)methoxy)-5,8-dihydropyrido[3,4-d]pyrimidin-7(6H)-yl)-5-ethynylnaphthalen-2-ol] | 0.02 µM
